Experimental findings from patent US10051861B2, “N-arylamidine-substituted trifluoroethyl sulfide derivatives as acaricides and insecticides” (BAYER CROPSCIENCE AG, priority 2011, dated 2018) are described below.

The structures appear in SMILES notation.

For the first assay, the system named is greenhouse red spider mite (Tetranychus urticae). Put plainly: Tetranychus urticae spray test, OP-resistant (TETRUR), bean leaf disks. Type of assay: in vivo. To be noted: Tetranychus urticae, foliar, 144 h, application rate 500 g/ha, after 6 days; read-out: efficacy (spider mites killed). The protocol: After 6 days, the effect in % is determined.
Take `Cc1ccc(/N=C2\SCC(=O)N2CC(F)(F)F)cc1[S+]([O-])CC(F)(F)F` (centres unmarked) [Ib-139]: the pest or weed control at 500 g/ha is 100%.
On the same count and under the same terms, next, `O=C1CS/C(=N\c2ccc(Cl)c([S+]([O-])CC(F)(F)F)c2)N1CC(F)(F)F` (centres unmarked) [Ib-146]: 90%; `Cc1cc(C)c(SCC(F)(F)F)cc1/N=C(/c1cccnc1)N(C)C` [Ia-167]: 90%.
On the same count and under the same terms, next, `CN(C)/C(=N/c1cc(SCC(F)(F)F)c(F)cc1Cl)C(F)(F)F` [Ia-109]: 80%; `Cc1cc(F)c(/N=C(\NC2CC2)c2ccc(Cl)nc2)cc1SCC(F)(F)F` [Ia-158]: 100%.
As for `Cc1cc(C)c([S+]([O-])CC(F)(F)F)cc1/N=C(/c1ccccc1Cl)N(C)C` (centres unmarked) [Ib-147], the pest or weed control at 500 g/ha stood at 90%.
`Cc1cc(F)c(/N=C(\c2cccc(F)c2)N(C)C)cc1[S+]([O-])CC(F)(F)F` (centres unmarked) [Ib-66]: the pest or weed control at 500 g/ha worked out at 90%.
In the case of `Cc1cc(F)c(/N=C(\N(C)C)C2(C(C)C)CC2(Cl)Cl)cc1SCC(F)(F)F` (centres unmarked) [Ia-106], the pest or weed control at 500 g/ha was 90%.
The same measure, in the same setting: the same measure for `Cc1cc(F)c(/N=C(/N)c2ccc(Cl)cc2)cc1SCC(F)(F)F` [Ia-215]: 90%; for `Cc1cc(F)c(/N=C(\N)C2(C#N)CC2)cc1[S+]([O-])CC(F)(F)F` (centres unmarked) [Ib-72]: 100%; for `Cc1cc(C)c([S+]([O-])CC(F)(F)F)cc1/N=C(\N)c1ccccn1` (centres unmarked) [Ib-102]: 90%.
`Cc1cc(F)c(/N=C(\NCC(F)(F)F)C2CCC2)cc1[S+]([O-])CC(F)(F)F` (centres unmarked) [Ib-166]: the pest or weed control at 500 g/ha came out at 90%.
The same measure, in the same setting: the same measure for `CCN(C)/C(=N/c1cc([S+]([O-])CC(F)(F)F)c(C)cc1F)C(F)(F)F` (centres unmarked) [Ib-23]: 90%; for `Cc1cc(F)c(/N=C(\N)C2CCCCC2)cc1[S+]([O-])CC(F)(F)F` (centres unmarked) [Ib-131]: 100%.
On the same count and under the same terms, the same measure for `CCN/C(=N\c1cc([S+]([O-])CC(F)(F)F)c(C)cc1F)C1CC1` (centres unmarked) [Ib-46]: 100%; for `CN(C)/C(=N/c1ccc(Cl)c(SCC(F)(F)F)c1)C(F)(F)F` [Ia-77]: 100%; for `Cc1cc(F)c(/N=C(/CC(F)(F)F)N(C)C)cc1SCC(F)(F)F` [Ia-216]: 90%.
On the same count and under the same terms, next, `Cc1cc(F)c(/N=C(\N)C2CC2(Cl)Cl)cc1SCC(F)(F)F` (centres unmarked) [Ia-75]: 100%; `CCN/C(=N\c1cc([S+]([O-])CC(F)(F)F)c(C)cc1F)c1cccnc1` (centres unmarked) [Ib-84]: 100%; `CN/C(=N/c1cc(SCC(F)(F)F)c(C)cc1F)c1cccc(C(F)(F)F)c1` [Ia-203]: 100%.
Take `Cc1cc(F)c(/N=C2/CCCN2CC(F)F)cc1SCC(F)(F)F` [Ia-55]: the pest or weed control at 500 g/ha stood at 100%.
Regarding `Cc1cc(C)c(SCC(F)(F)F)cc1/N=C(\N)C(F)(F)C(F)(F)F` [Ia-127], the pest or weed control at 500 g/ha turned out to be 100%.
On the same count and under the same terms, next, `CN/C(=N/c1cc(SCC(F)(F)F)c(F)cc1Cl)C(F)(F)F` [Ia-97]: 100%; `O=C1CS/C(=N\c2cc([S+]([O-])CC(F)(F)F)ccc2Cl)N1CC(F)(F)F` (centres unmarked) [Ib-121]: 100%.
Take `Cc1cc(C)c([S+]([O-])CC(F)(F)F)cc1/N=C(\N)C1(Cl)CC1` (centres unmarked) [Ib-79]: the pest or weed control at 500 g/ha was found to be 100%.
Same read-out and setting: next, `CN/C(=N\c1cc(SCC(F)(F)F)c(C)cc1F)C1CC1` [Ia-163]: 100%; `CCN/C(=N\c1cc([S+]([O-])CC(F)(F)F)c(Cl)cc1Cl)c1cccnc1` (centres unmarked) [Ib-150]: 90%; `CN/C(=N\c1cc(SCC(F)(F)F)c(Cl)cc1Cl)c1cccc(Cl)c1` [Ia-177]: 90%.
As for `Cc1cc(F)c(/N=C(/N)c2ccc([N+](=O)[O-])cc2)cc1SCC(F)(F)F` [Ia-223], the pest or weed control at 500 g/ha worked out at 90%.
Still for that read-out and setting: next, `Cc1cc(F)c(/N=c2\snc(C)n2C)cc1[S+]([O-])CC(F)(F)F` (centres unmarked) [Ib-174]: 100%; `O=C1CS/C(=N\c2cc([S+]([O-])CC(F)(F)F)c(Cl)cc2Cl)N1C1CC1` (centres unmarked) [Ib-122]: 90%.
Turning to `N/C(=N\c1cccc(SCC(F)(F)F)c1)c1ccncc1` [Ia-101], the pest or weed control at 500 g/ha amounted to 90%.
On the same count and under the same terms, next, `CN/C(=N\c1cc(SCC(F)(F)F)c(C)cc1C)c1ccncc1` [Ia-239]: 100%.
The same measure, in the same setting: next, `Cc1cc(Cl)c([S+]([O-])CC(F)(F)F)cc1/N=C(\N)c1cnccn1` (centres unmarked) [Ib-153]: 90%.
`Cc1cc(C)c(SCC(F)(F)F)cc1/N=C(\N)C(F)(F)Cl` [Ia-122]: the pest or weed control at 500 g/ha came to 100%.
Same read-out and setting: the same measure for `Cc1cc(C)c([S+]([O-])CC(F)(F)F)cc1/N=C1\CCCN1C(C)C(F)(F)F` (centres unmarked) [Ib-112]: 100%.
On the same count and under the same terms, next, `Cc1cc(C)c(SCC(F)(F)F)cc1/N=C(\NCC(F)(F)F)C1CCCC1` [Ia-241]: 90%; `N/C(=N\c1cc(SCC(F)(F)F)c(Cl)cc1Cl)C1CC1(Cl)Cl` (centres unmarked) [Ia-140]: 100%.
Turning to `Cc1cc(F)c(/N=C2\SCC(=O)N2C2CC2)cc1SCC(F)(F)F` [Ia-197], the pest or weed control at 500 g/ha was found to be 100%.
Take `COC/C(N)=N/c1cc(SCC(F)(F)F)c(Cl)cc1Cl` [Ia-258]: the pest or weed control at 500 g/ha came to 90%.
Regarding `Cc1cc(F)c(/N=C(\c2ccc(C#N)cc2)N(C)C)cc1[S+]([O-])CC(F)(F)F` (centres unmarked) [Ib-61], the pest or weed control at 500 g/ha turned out to be 100%.
On the same count and under the same terms, the same measure for `Cc1cc(F)c(/N=C(\c2cccn2C)N(C)C)cc1[S+]([O-])CC(F)(F)F` (centres unmarked) [Ib-82]: 100%; for `Cc1cc(C)c(SCC(F)(F)F)cc1/N=C1\CCCN1C` [Ia-105]: 90%.
In the case of `CN/C(=N/c1cc([S+]([O-])CC(F)(F)F)c(Cl)cc1F)C(F)(F)F` (centres unmarked) [Ib-41], the pest or weed control at 500 g/ha was determined as 90%.
Regarding `C/C=C/C=C/C(=N/c1cc(SCC(F)(F)F)c(C)cc1F)NC(C)CC` (centres unmarked) [Ia-178], the pest or weed control at 500 g/ha is 90%.
On the same count and under the same terms, the same measure for `COc1cc(C)c(SCC(F)(F)F)cc1/N=C(\N)c1ccncn1` [Ia-260]: 90%; for `CCN(C)/C(=N\c1cc(SCC(F)(F)F)c(C)cc1C)c1ccc(Cl)cc1` [Ia-231]: 90%.
Still for that read-out and setting: the same measure for `FC(F)(F)CSc1cc(/N=C(\NCCc2ncc(C(F)(F)F)cc2Cl)C2CC2)c(Cl)cc1Cl` [Ia-235]: 90%; for `N/C(=N/c1cc(SCC(F)(F)F)c(Cl)cc1Br)C(F)(F)F` [Ia-124]: 100%; for `Cc1cc(Cl)c(/N=C(/c2ccc(Cl)cc2)N(C)C)cc1SCC(F)(F)F` [Ia-71]: 100%.
The same measure, in the same setting: the same measure for `Cc1cc(C)c([S+]([O-])CC(F)(F)F)cc1/N=C1\SCC(=O)N1CC(F)(F)F` (centres unmarked) [Ib-141]: 100%; for `Cc1cc(F)c(/N=C(\N)c2ccccn2)cc1SCC(F)(F)F` [Ia-63]: 90%; for `Cc1cc(C)c([S+]([O-])CC(F)(F)F)cc1/N=C(/c1ccc(Cl)cc1)N(C)C` (centres unmarked) [Ib-154]: 90%.
As to `Cc1ccc(/N=C2\SCC(=O)N2CC(F)(F)F)cc1SCC(F)(F)F` [Ia-195], the pest or weed control at 500 g/ha stood at 100%.
On the same count and under the same terms, next, `O=C1CS/C(=N\c2cc(SCC(F)(F)F)c(Cl)cc2F)N1CC(F)(F)F` [Ia-192]: 90%; `CN(C)/C(=N/c1cc([S+]([O-])CC(F)(F)F)c(Cl)cc1Cl)C(F)(F)F` (centres unmarked) [Ib-26]: 100%.
Same read-out and setting: the same measure for `N/C(=N\c1cc([S+]([O-])CC(F)(F)F)c(Cl)cc1Cl)C(F)F` (centres unmarked) [Ib-80]: 100%.
The same measure, in the same setting: next, `Cc1cc(C)c(SCC(F)(F)F)cc1/N=C(\NC1CC1)c1ccc(Cl)nc1` [Ia-232]: 90%; `Cc1cc(F)c(/N=C(/NC2COC2)C(F)(F)F)cc1[S+]([O-])CC(F)(F)F` (centres unmarked) [Ib-54]: 90%.
For `CN/C(=N/c1cc([S+]([O-])CC(F)(F)F)c(C)cc1F)c1ccc(C(F)(F)F)nc1` (centres unmarked) [Ib-92], the pest or weed control at 500 g/ha is 100%.
On the same count and under the same terms, next, `Cc1cc(F)c(/N=C(/N)c2ccc(Cl)cc2)cc1[S+]([O-])CC(F)(F)F` (centres unmarked) [Ib-118]: 100%; `CN(C)/C(=N\c1cc(SCC(F)(F)F)c(Cl)cc1Cl)c1ccc(Cl)cc1` [Ia-211]: 100%; `CN/C(=N/c1cc(SCC(F)(F)F)c(C)cc1F)C(F)(F)F` [Ia-226]: 100%.
Same read-out and setting: the same measure for `Cc1cc(F)c(/N=C(/c2ccccc2Cl)N2CCOCC2)cc1SCC(F)(F)F` [Ia-230]: 100%.
Regarding `CN/C(=N/c1ccc(C)c([S+]([O-])CC(F)(F)F)c1)C(F)(F)F` (centres unmarked) [Ib-125], the pest or weed control at 500 g/ha worked out at 100%.
Still for that read-out and setting: next, `Cc1cc(F)c(/N=C(\N)C2CC2)cc1[S+]([O-])CC(F)(F)F` (centres unmarked) [Ib-53]: 100%; `Cc1cc(F)c(/N=C(\c2ccc(C#N)cc2)N(C)C)cc1SCC(F)(F)F` [Ia-131]: 100%.
Same read-out and setting: next, `CN/C(=N\c1cc(SCC(F)(F)F)c(Cl)cc1Cl)c1ccccn1` [Ia-248]: 90%; `Cc1cc(F)c(/N=C(\c2cccc(C(F)(F)F)c2)N(C)C)cc1[S+]([O-])CC(F)(F)F` (centres unmarked) [Ib-114]: 100%.
`Cc1cc(F)c(/N=C(\c2ccccc2F)N(C)C)cc1[S+]([O-])CC(F)(F)F` (centres unmarked) [Ib-87]: the pest or weed control at 500 g/ha was found to be 100%.
Consider `COc1ccc(/C(N)=N\c2cc(SCC(F)(F)F)c(C)cc2F)cc1` [Ia-263], for which the pest or weed control at 500 g/ha came to 90%.
As to `N/C(=N\c1cccc(SCC(F)(F)F)c1)C1(Cl)CC1` [Ia-100], the pest or weed control at 500 g/ha came out at 100%.

The same assay, now with this note: Tetranychus urticae, foliar, 144 h, read-out: efficacy (spider mites killed).
Consider `Cc1cc(F)c(/N=C2\NCCO2)cc1SCC(F)(F)F` [Ia-243], for which the pest or weed control at 500 g/ha was 90%.

Staying with this assay, now noted: application rate 500 g/ha, after 6 days.
For the compound `Cc1cc(F)c(/N=C(\c2ccc(C#N)cc2)N(C)C)cc1[S+]([O-])CC(F)(F)F` (centres unmarked) [Ib-77], the “efficacy (spider mites killed)” value was 90%.
